The target of the test is MRP2 (ABCC2, multidrug resistance protein 2) (Homo sapiens, UniProt Q92887). Kind of test: calcein retention (calcein-AM) in Caco-2 cells; CDF transport across Caco-2 monolayers. In kind it is cell-based.

These results are taken from PMC4730408, “Genistein and Glyceollin Effects on ABCC2 (MRP2) and ABCG2 (BCRP) in Caco-2 Cells” (International Journal of Environmental Research and Public …, 2015).

MRP2 (ABCC2, multidrug resistance protein 2), sequence (Q92887 whole entry): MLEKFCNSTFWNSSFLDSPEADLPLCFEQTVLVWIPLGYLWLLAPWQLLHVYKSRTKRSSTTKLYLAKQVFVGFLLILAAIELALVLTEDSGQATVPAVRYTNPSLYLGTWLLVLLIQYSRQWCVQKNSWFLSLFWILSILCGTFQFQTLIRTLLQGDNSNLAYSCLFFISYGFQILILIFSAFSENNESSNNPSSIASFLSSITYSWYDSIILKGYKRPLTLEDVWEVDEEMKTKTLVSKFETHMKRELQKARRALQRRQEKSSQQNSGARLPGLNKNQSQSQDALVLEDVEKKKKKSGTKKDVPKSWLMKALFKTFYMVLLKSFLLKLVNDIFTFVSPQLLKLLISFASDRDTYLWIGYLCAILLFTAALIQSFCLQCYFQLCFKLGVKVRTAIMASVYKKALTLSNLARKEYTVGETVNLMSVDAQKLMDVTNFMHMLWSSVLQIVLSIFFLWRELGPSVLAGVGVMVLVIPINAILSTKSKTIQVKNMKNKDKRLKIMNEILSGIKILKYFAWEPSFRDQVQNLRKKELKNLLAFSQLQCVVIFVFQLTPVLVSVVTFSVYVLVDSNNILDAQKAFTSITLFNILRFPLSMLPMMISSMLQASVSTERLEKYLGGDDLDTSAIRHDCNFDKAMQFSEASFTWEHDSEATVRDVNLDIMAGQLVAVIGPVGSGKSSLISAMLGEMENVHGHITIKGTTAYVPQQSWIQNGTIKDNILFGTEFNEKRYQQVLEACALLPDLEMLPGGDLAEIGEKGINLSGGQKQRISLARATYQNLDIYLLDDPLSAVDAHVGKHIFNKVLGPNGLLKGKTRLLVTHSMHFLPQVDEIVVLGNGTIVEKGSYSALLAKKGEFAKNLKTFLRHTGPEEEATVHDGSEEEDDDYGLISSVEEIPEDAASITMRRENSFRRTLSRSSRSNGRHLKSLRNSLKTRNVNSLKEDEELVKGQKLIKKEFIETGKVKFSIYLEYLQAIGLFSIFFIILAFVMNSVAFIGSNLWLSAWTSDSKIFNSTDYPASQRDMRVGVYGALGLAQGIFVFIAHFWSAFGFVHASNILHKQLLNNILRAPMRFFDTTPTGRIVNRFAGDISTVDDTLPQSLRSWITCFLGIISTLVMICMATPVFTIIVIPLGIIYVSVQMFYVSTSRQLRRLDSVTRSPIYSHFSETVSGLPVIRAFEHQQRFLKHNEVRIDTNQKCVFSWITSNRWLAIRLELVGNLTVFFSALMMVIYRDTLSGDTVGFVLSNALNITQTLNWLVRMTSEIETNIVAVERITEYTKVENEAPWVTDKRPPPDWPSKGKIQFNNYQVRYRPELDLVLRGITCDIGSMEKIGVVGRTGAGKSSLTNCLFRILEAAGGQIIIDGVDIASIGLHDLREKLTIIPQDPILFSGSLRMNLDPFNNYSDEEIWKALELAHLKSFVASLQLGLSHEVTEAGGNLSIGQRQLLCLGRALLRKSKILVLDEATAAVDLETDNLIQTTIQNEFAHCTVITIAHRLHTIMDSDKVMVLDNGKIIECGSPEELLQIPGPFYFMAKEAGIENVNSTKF

Broadly, the EC50 is the concentration at which the effect is half-maximal. With `CN(C)C(=O)CCSC(SCCC(=O)O)c1cccc(/C=C/c2ccc3ccc(Cl)cc3n2)c1` (stereo not shown) [MK-571], the EC50 is 20 µM.
